Measurements reported in ChEMBL document CHEMBL3856212, “Synthesis, anti-proliferative and genotoxicity studies of 6-chloro-5-(2-substituted-ethyl)-1,3-dihydro-2H-indol-2-ones and 6-chloro-5-(2-chloroethyl)-3-(alkyl/ary-2-ylidene)indolin-2-ones” (Eur J Med Chem, 2016).

Legend:
Type in all cases: functional
[1] = Cytotoxicity against human HOP92 cells assessed as growth inhibition after 48 hrs by SRB assay; conditions: HOP-92, 48 h; for CC50: read-out: LD50 (the source's name)
[2] = Cytotoxicity against human HCT15 cells assessed as growth inhibition after 48 hrs by SRB assay; conditions: HCT-15, 48 h; for CC50: read-out: LD50 (the source's name)
[3] = Cytotoxicity against human SF295 cells assessed as growth inhibition after 48 hrs by SRB assay; conditions: SF-295, 48 h; for CC50: read-out: LD50 (the source's name)
[4] = Cytotoxicity against human LOXIMVI cells assessed as growth inhibition after 48 hrs by SRB assay; conditions: LOX IMVI; for CC50: read-out: LD50 (the source's name)
[5] = Cytotoxicity against human MALME-3M cells assessed as growth inhibition after 48 hrs by SRB assay; conditions: for CC50: read-out: LD50 (the source's name)
[6] = Cytotoxicity against human UACC257 cells assessed as growth inhibition after 48 hrs by SRB assay; conditions: UACC-257, 48 h; for CC50: read-out: LD50 (the source's name)
[7] = Cytotoxicity against human IGROV1 cells assessed as growth inhibition after 48 hrs by SRB assay; conditions: IGROV-1, 48 h; for CC50: read-out: LD50 (the source's name)
[8] = Cytotoxicity against human TK10 cells assessed as growth inhibition after 48 hrs by SRB assay; conditions: TK-10, 48 h; for CC50: read-out: LD50 (the source's name)
[9] = Cytotoxicity against human UO31 cells assessed as growth inhibition after 48 hrs by SRB assay; conditions: UO-31, 48 h; for CC50: read-out: LD50 (the source's name)
[10] = Cytotoxicity against human MDA-MB-231 cells assessed as growth inhibition after 48 hrs by SRB assay; conditions: MDA-MB-231, 48 h; for CC50: read-out: LD50 (the source's name)
[11] = Cytotoxicity against human SW1222 cells assessed as assessed as growth inhibition at 10^-5 M after 48 hrs by SRB assay relative to control; conditions: SW1222, 48 h, read-out: GI
[12] = Cytotoxicity against human NCI-H460 cells assessed as assessed as growth inhibition at 10^-5 M after 48 hrs by SRB assay relative to control; conditions: NCI-H460, 48 h, read-out: GI
[13] = Cytotoxicity against human SK-MEL-5 cells assessed as assessed as growth inhibition at 10^-5 M after 48 hrs by SRB assay relative to control; conditions: SK-MEL-5, 48 h, read-out: GI
[14] = Cytotoxicity against human DU145 cells assessed as assessed as growth inhibition at 10^-5 M after 48 hrs by SRB assay relative to control; conditions: DU-145, 48 h, read-out: GI
[15] = Cytotoxicity against human COLO205 cells assessed as assessed as growth inhibition at 10^-5 M after 48 hrs by SRB assay relative to control; conditions: COLO 205, 48 h, read-out: GI

Row | SMILES | GI50 [1] | TGI [1] | CC50 [1] | GI50 [2] | TGI [2] | CC50 [2] | GI50 [3] | TGI [3] | CC50 [3] | GI50 [4] | TGI [4] | CC50 [4] | GI50 [5] | TGI [5] | CC50 [6] | GI50 [10] | TGI [10] | CC50 [10] | inhibition of growth at 10 µM [12] | inhibition of growth at 10 µM [13] | also measured
1 | O=C1Cc2cc(CCn3cncn3)c(Cl)cc2N1 | 3.02 µM | > 1 µM | > 1000 nM | 9.59 µM | > 1000 nM | > 1000 nM | 3.71 µM | > 1000 nM | > 1000 nM | 1000 nM | > 1000 nM | > 1000 nM | 1 µM | > 1000 nM | > 1000 nM | 4.66 µM | > 1000 nM | > 1000 nM | 16.1% | 59.9% | CC50 [5]: > 1000 nM; GI50 [6]: 7.14 µM; TGI [6]: > 1000 nM; GI50 [7]: 1000 nM; TGI [7]: > 1000 nM; CC50 [7]: > 1000 nM; GI50 [8]: 1000 nM; TGI [8]: > 1000 nM; CC50 [8]: > 1000 nM; GI50 [9]: 1 µM; TGI [9]: > 1000 nM; CC50 [9]: > 1000 nM; inhibition of growth at 10 µM [11]: 45.8%; inhibition of growth at 10 µM [14]: 3.54%
2 | O=C1Cc2cc(CCn3ccnc3)c(Cl)cc2N1 | 3.54 µM | 9.15 µM | > 1000 nM | 7.07 µM | > 1000 nM | > 1000 nM | 7.87 µM | > 1000 nM | > 1000 nM | 8530 nM | > 1000 nM | > 1000 nM | 7.95 µM | > 1000 nM | > 1000 nM | 5.18 µM | > 1000 nM | > 1000 nM | 52.6% | 67.8% | CC50 [5]: > 1000 nM; GI50 [7]: 1000 nM; TGI [7]: > 1000 nM; CC50 [7]: > 1000 nM; GI50 [8]: 1000 nM; TGI [8]: > 1000 nM; CC50 [8]: > 1000 nM; GI50 [9]: 5.85 µM; TGI [9]: > 1000 nM; CC50 [9]: > 1000 nM; inhibition of growth at 10 µM [15]: 29.9%; inhibition of growth at 10 µM [14]: 31%
3 | O=C1Cc2cc(CCN3CCNCC3)c(Cl)cc2N1 |  |  |  | 6.23 µM | > 1000 nM | > 1000 nM | 4.2 µM | > 1000 nM | > 1000 nM | 1000 nM | > 1000 nM | > 1000 nM |  |  | > 1000 nM | 3.9 µM | > 1000 nM | > 1000 nM | 25.7% | 65.4% | GI50 [6]: 6.52 µM; TGI [6]: > 1000 nM; inhibition of growth at 10 µM [11]: 59.2%; inhibition of growth at 10 µM [15]: 40.1%
